Results reported in patent US20050107386A1, “Methods of treating diseases and disorders by targeting multiple kinases” (priority 2003, published 2005).

Experiments:
MSK1(h) = MSK1(h) (Homo sapiens, UniProt O75582); test: MSK1(h) kinase assay; format: biochemical; conditions: 3 μM; percent of control kinase activity
Protocol: (§1) Six compounds (presumptive single agents) were tested against a panel of 50 kinases. The results are presented in Table 2; numbers for each kinase indicate the percent of control kinase activity in the presence of a 3μM concentration of the indicated agent.
(§2) Agents that target two or more different kinases are useful in the methods of the invention as described elsewhere herein. Such compounds may be identified, and their effect on certain kinases may be identified, using the assays briefly described below in Examples 4-83. Each of these assays was carried out as described in Davies et al., Biochem. J., 351:95-105 (2000). All assays were carried out at 10 μM ATP unless otherwise noted.
(§3) In a final reaction volume of 25 μl, MSK1 (h) (5-10 mU) is incubated with 8 mM MOPS pH 7.0, 0.2 mM EDTA, 30 μM […] (SEQ ID NO:2), 10 mM MgAcetate and [γ-^33P-ATP] (specific activity approx. 500 cpm/pmol, concentration as required). The reaction is initiated by the addition of Mg^2+ [γ-^33P-ATP]. After incubation for 40 minutes at room temperature, the reaction is stopped by the addition of 5 μl of a 3% phosphoric acid solution. 10 μl of the reaction is then spotted onto a P30 filtermat and washed three times for 5 minutes in 75 mM phosphoric acid and once in methanol prior to drying and scintillation counting.

CDK3/cyclinE(h) = CDK3/cyclinE(h) (Homo sapiens, UniProt Q00526); test: CDK3/cyclinE(h) kinase assay; format: biochemical; conditions: 3 μM; percent of control kinase activity
Protocol: as §1, §2
(§4) In a final reaction volume of 25 μl, CDK3/cyclinE (h) (5-10 mU) is incubated with 8 mM MOPS pH 7.0, 0.2 mM EDTA, 0.1 mg/ml histone H1, 10 mM MgAcetate and [γ-^33P-ATP] (specific activity approx. 500 cpm/pmol, concentration as required). The reaction is initiated by the addition of Mg^2+ [γ-^33P-ATP]. After incubation for 40 minutes at room temperature, the reaction is stopped by the addition of 5 μl of a 3% phosphoric acid solution. 10 μl of the reaction is then spotted onto a P30 filtermat and washed three times for 5 minutes in 75 mM phosphoric acid and once in methanol prior to drying and scintillation counting.

c-RAF(h) = c-RAF(h) kinase assay; format: biochemical, human; conditions: 3 μM; percent of control kinase activity
Protocol: as §1, §2
as §4, with “c-RAF” for “CDK3/cyclinE”, “25” for “8”, “Tris” for “MOPS”, “7.5, 0.02” for “7.0, 0.2”, “EGTA, 0.66” for “EDTA, 0.1”, “myelin basic protein,” for “histone H1,”

CDK1/cyclinB(h) = CDK1/cyclinB(h) (Homo sapiens, UniProt P06493); test: CDK1/cyclinB(h) kinase assay; format: biochemical; conditions: for Inhibitory activity (% of control), CDK1/cyclinB(h): 3 μM, percent of control kinase activity
Protocol: as §1, §2
as §4, with “CDK1/cyclinB” for “CDK3/cyclinE”, “[γ-^33p-ATP]” for “[γ-^33P-ATP]”, “[γ-33 P-ATP].” for “[γ-^33P-ATP].”

PRK2(h) = PRK2(h) (Homo sapiens, UniProt Q16513); test: PRK2(h) kinase assay; format: biochemical; conditions: 3 μM; percent of control kinase activity
Protocol: as §1, §2
as §3, with “PRK2” for “MSK1”, “50” for “8”, “Tris” for “MOPS”, “7.5, 0.1” for “7.0, 0.2”, “EGTA, 0.1% β-mercaptoethanol,” for “EDTA,”, “NO:12),” for “NO:2),”

Rsk3(h) = Rsk3(h) (Homo sapiens, UniProt Q15349); test: Rsk3(h) kinase assay; format: biochemical; conditions: 3 μM; percent of control kinase activity
Protocol: as §1, §2
as §3, with “Rsk3” for “MSK1”, “NO:11),” for “NO:2),”

Chain of CDK3/cyclinE(h) (Q00526 whole entry): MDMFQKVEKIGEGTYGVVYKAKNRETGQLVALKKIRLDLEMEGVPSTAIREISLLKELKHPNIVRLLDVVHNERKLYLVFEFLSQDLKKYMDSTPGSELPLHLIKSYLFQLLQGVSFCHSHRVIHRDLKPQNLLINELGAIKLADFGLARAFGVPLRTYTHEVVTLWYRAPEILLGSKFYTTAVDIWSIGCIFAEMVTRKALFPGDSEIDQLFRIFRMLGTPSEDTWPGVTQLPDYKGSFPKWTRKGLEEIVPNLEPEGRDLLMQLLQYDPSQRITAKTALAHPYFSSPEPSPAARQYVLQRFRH
Chain of CDK3/cyclinE(h) (P24864 whole entry partner): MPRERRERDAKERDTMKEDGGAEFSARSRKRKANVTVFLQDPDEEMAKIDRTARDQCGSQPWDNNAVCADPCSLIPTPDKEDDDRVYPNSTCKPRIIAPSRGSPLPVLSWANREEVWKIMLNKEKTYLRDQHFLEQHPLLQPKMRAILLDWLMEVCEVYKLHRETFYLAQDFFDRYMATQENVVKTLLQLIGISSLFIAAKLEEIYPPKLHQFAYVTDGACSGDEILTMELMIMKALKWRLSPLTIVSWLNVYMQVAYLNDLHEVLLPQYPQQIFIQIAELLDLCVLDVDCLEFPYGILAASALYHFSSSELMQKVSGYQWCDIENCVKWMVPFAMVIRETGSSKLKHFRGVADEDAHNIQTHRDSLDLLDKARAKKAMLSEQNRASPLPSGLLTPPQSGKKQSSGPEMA
Chain of PRK2(h) (Q16513 whole entry): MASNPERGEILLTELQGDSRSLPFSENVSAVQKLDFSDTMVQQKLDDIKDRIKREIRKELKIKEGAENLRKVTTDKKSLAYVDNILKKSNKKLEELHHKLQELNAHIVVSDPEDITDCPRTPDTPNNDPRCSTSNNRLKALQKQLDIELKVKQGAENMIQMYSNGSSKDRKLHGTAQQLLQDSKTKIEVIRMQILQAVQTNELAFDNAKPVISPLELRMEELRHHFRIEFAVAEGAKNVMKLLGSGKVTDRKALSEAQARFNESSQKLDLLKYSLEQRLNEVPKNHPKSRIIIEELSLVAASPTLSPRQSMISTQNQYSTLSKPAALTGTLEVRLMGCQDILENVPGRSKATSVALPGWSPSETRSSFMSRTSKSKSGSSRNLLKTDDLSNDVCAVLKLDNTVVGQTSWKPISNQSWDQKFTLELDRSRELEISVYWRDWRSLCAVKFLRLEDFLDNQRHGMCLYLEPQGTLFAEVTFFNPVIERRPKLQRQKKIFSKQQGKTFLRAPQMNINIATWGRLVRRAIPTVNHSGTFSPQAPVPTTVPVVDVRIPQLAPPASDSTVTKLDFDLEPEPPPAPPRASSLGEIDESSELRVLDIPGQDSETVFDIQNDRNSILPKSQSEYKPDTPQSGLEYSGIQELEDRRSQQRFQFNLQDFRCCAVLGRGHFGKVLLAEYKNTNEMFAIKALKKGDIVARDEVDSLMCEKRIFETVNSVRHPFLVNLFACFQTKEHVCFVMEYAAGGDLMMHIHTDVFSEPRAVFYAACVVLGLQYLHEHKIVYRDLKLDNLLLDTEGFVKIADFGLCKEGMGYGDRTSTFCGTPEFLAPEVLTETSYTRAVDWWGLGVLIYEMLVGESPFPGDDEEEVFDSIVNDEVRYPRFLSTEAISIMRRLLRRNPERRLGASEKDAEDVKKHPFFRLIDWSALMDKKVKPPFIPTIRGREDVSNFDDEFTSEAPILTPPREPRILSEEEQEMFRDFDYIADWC
Chain of CDK1/cyclinB(h) (P06493 whole entry): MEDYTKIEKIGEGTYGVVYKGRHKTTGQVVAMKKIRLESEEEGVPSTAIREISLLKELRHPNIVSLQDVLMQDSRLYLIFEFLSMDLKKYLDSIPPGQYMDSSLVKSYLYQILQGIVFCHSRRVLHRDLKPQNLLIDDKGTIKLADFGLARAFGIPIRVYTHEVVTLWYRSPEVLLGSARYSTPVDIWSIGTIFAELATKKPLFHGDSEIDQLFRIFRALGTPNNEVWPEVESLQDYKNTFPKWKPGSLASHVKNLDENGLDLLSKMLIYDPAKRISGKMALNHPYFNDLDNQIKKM
Chain of CDK1/cyclinB(h) (P14635 whole entry partner): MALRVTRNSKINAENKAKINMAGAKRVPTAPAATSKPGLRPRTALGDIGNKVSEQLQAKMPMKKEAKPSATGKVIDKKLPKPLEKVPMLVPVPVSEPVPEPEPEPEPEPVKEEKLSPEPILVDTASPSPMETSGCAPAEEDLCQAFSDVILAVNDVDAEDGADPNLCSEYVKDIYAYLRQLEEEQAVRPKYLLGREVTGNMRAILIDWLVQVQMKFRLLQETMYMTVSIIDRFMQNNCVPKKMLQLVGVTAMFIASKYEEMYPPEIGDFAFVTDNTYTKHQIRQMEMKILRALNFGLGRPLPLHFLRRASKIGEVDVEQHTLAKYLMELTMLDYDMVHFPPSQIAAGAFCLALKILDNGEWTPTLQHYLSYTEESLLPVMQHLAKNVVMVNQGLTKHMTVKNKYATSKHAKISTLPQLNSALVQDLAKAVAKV
Chain of MSK1(h) (O75582 whole entry): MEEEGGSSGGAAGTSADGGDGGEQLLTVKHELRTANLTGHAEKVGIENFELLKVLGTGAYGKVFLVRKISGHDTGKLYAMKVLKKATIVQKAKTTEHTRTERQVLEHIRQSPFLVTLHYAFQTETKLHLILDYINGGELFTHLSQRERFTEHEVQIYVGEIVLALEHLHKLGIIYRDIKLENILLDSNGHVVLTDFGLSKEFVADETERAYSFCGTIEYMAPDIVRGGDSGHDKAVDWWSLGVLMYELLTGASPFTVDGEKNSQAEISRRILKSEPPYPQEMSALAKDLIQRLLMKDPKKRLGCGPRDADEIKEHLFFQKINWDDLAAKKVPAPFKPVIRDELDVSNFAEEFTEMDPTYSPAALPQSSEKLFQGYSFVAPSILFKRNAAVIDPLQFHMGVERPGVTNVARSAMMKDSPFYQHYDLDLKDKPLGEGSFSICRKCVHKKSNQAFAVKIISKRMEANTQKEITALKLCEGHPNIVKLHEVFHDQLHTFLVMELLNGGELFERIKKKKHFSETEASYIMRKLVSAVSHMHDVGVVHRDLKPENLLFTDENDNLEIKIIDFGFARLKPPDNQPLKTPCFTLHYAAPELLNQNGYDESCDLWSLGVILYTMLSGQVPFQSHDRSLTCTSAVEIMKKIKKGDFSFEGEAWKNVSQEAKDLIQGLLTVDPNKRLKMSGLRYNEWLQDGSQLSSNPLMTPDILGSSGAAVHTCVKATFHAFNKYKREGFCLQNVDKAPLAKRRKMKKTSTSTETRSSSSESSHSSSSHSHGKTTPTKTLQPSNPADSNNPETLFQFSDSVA
Chain of Rsk3(h) (Q15349 whole entry): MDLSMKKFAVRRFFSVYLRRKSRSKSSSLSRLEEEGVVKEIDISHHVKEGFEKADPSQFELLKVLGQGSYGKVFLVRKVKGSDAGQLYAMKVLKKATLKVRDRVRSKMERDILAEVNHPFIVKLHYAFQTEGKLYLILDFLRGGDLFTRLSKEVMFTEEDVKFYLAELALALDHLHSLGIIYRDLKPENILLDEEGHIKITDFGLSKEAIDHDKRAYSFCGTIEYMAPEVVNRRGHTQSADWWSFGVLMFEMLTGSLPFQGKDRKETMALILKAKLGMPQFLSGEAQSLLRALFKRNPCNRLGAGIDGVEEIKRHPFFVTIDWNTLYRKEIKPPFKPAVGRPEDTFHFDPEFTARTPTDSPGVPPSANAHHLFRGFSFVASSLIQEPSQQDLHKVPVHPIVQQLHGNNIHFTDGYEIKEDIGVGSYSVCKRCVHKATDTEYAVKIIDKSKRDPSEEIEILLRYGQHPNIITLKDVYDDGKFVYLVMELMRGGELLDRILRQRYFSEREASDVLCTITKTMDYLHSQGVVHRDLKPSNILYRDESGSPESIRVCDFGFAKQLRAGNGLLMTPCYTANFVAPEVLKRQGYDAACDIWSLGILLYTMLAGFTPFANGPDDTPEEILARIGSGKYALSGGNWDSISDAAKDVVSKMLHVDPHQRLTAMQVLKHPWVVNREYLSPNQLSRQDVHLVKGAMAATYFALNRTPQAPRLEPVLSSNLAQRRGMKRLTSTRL

| SMILES | Inhibitory activity (% of control), MSK1(h) (MSK1(h)) | Inhibitory activity (% of control), CDK3/cyclinE(h) (CDK3/cyclinE(h)) | Inhibitory activity (% of control), c-RAF(h) (c-RAF(h)) | Inhibitory activity (% of control), CDK1/cyclinB(h) (CDK1/cyclinB(h)) | Inhibitory activity (% of control), PRK2(h) (PRK2(h)) | Inhibitory activity (% of control), Rsk3(h) (Rsk3(h)) | inhibitory activity against CDK1, in words (CDK1/cyclinB(h); summary of Table 2) |
| --- | --- | --- | --- | --- | --- | --- | --- |
| COc1ccc2cc(-c3n[nH]c4ccc(-c5n[nH]c(CN6CCOCC6)n5)cc34)ccc2c1 [CC001, 3-(6-Methoxynaphthalen-2-yl)-5-(5-Morpholin-4-Ylmethyl-1H-[1,2,4]Triazol-3-yl)-1H-Indazole] | 62 % of control | 31 % of control | 99 % of control | 2 % of control | 9 % of control | 4 % of control |  |
| CC(C)Cc1nc(-c2ccc3[nH]nc(-c4ccc5cc(OCCN6CCCC6)ccc5c4)c3c2)n[nH]1 [CC002, 5-(5-Isobutyl-1H-[1,2,4]Triazol-3-yl)-3-[6-(2-Pyrrolidin-1-yl-Ethoxy)-Naphthalen-2-yl]-1H-Indazole] | 45 % of control | 36 % of control | 96 % of control | 2 % of control | 4 % of control | 5 % of control |  |
| CC(C)(C)Cc1nc(-c2ccc3[nH]nc(-c4ccc5cc(OCc6ccccn6)ccc5c4)c3c2)n[nH]1 [CC004, 5-[5-(2,2-Dimethyl-propyl)-1H-[1,2,4]triazol-3-yl]-3-[6-(pyridine-2-ylmethoxy)-naphthalen-2-yl]-1H-indazole] | 76 % of control | 39 % of control | 85 % of control | 1 % of control | 3 % of control | 43 % of control | good inhibitory activity |
| CCN1CCC[C@H]1COc1ccc2cc(-c3n[nH]c4ccc(-c5nc(CC(C)(C)C)n[nH]5)cc34)ccc2c1 [CC005, 2-[((2s)-1-ethylpyrrolidin-2-yl)methoxy]-6-{5-[3-(2,2-Dimethylpropyl)(1H-1,2,4,-triazol-5-yl)](1H-indazol-3-yl)}naphthalene] | 25 % of control | 25 % of control | 100 % of control | 1 % of control | 1 % of control | 4 % of control |  |
| Fc1ccc(-c2n[nH]c3ccc(-c4n[nH]c(C5CCCC5)n4)cc23)cc1 [CC006, 5-(5-Cyclopentyl-1H-[1,2,4]triazol-3-yl)-3-(4-fluoro-phenyl)-1H-indazole, reference compound] | 72 % of control | 15 % of control | 99 % of control | 3 % of control | 24 % of control | 39 % of control |  |
| O=C(NC1CCCC1)c1cccc(-c2n[nH]c3ccc(-c4nc[nH]n4)cc23)c1 [CC007, 3-(5-(1H-1,2,4-triazol-3-yl)(1H-indazol-3-yl))phenyl-N-cyclopentylcarboxamide, reference compound] | 89 % of control | 73 % of control | 92 % of control | 26 % of control | 68 % of control | 38 % of control |  |
